The results in this text go back to US10100055B2, “Imidazopyrroloquinoline salt, method for producing the same, medicament, cosmetic, and food” (Mitsubishi Gas Chemical Company, Inc., priority 2016, dated 2018).

Usually solubility stands for how much of the substance goes into solution per volume.

Data set [1] concerns Human uterine cancer cells (HeLa cells). Briefly: Cell activity test (cell counting kit 8). It counts as cell-based. More on the design: number of the human uterine cancer cells (number without sample taken to be 100): dose or concentration left out as unconfirmed. The method, then:
Human uterine cancer cells (HeLa cells) were cultured in an incubator at a 5%-CO2 concentration and at 37° C. Thereafter, the human uterine cancer cells were inoculated to 96 wells so as to become 1000 cells/well, and cultured for one night. Then, a suspension in which the sample of Example 1 was suspended in a phosphate buffer so as to become 1 g/L was used and added so as to become […]. After 2 days, by using a “cell counting kit 8” (trade name, manufactured by Dojindo Laboratories), the number of the human uterine cancer cells was measured. When the number of the human uterine cancer cells 2 days after the culture for one night when the sample of Example 1 was not added was taken to be 100, the number of the cells when the sample of Example 1 in […] was used was 112.

A short description of data set [2]: Solubility in water or ethanol, by absorbance at 260 nm. Type of data set: physicochemical. The note with it: thermodynamic from solid. The method, then:
The resultants were allowed to stand at the following temperatures (23° C. or 50° C.) for 1 hour, and thereafter centrifuged, and filtered with a filter of 0.5 μm; […] at an absorption wavelength of 260 nm.

The structures appear in SMILES notation.

In the case of `N=C(N)NCCCc1nc2c(=O)c3cc(C(=O)O)[nH]c3c3c(C(=O)O)cc(C(=O)O)n1c23` [Example 1, argIPQ disodium trihydrate], the “effect on cell proliferation (in words)” value in data set [1] is on record as “functioned to advance the cell proliferation”. Further, the “number of the human uterine cancer cells (number without sample taken to be 100)” value in data set [1] (after 2 days, control = 100) was 112. Moreover, the solubility at 1 h in data set [2] (organic solvent or mixture, ethanol, 23° C.) is 0.4 mg/mL; in data set [2] (water, 23° C.), 37 mg/mL; in data set [2] (water, 50° C.), 47 mg/mL.
